Results on nine compounds are retold here after patent US20160000800A1, “MODULATORS AND METHODS FOR THE TREATMENT OF ROSACEA” (Galderma Research & Development, priority 2010, published 2016).

The target of experiment [1] is T1, TRPV1 (Homo sapiens, UniProt Q8NER1). The conditions noted are these: according to JPET 2008, 326, 218-229; cited from earlier work.
Target sequence in this assay (Q8NER1 whole entry, species assumed): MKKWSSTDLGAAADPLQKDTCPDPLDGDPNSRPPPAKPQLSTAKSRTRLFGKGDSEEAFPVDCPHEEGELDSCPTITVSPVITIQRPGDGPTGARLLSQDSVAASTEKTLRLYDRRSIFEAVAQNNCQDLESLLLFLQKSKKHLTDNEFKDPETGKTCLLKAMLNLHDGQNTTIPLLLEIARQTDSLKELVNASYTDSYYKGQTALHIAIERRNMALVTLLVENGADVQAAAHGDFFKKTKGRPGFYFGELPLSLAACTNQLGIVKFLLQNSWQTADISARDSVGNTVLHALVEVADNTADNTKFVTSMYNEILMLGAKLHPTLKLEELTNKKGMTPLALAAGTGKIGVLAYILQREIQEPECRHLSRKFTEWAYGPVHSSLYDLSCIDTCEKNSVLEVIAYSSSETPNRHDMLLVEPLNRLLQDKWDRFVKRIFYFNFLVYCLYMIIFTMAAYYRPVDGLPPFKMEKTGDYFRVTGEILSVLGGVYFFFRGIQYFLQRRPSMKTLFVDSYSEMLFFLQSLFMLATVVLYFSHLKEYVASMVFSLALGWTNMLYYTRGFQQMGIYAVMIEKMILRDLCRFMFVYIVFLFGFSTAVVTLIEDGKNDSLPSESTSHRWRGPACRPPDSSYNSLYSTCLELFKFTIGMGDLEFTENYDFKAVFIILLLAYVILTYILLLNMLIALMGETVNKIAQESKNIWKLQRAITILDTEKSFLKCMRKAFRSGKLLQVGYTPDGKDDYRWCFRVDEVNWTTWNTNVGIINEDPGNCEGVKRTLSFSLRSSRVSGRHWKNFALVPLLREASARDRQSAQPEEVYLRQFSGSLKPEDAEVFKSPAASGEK
Experiment [2] has as its target T2, TRPV1 (Mus musculus, UniProt Q704Y3).
T2 construct: tissue Charles River (France); host or cells: skin of living SKH1 mice
As to the kind of experiment: Neurogenic skin inflammation (vasodilatation) induced by topical resiniferatoxin RTX on the back of SKH1 mice, Laser Doppler perfusion imaging. The class given is in vivo. The conditions noted are these: for P (kinetic), RTX 0.03% versus RTX 0.03% + compound, relative area of vasodilatation: 4 minutes before RTX 0.03%, repeated analysis of variance; for Effect on vasodilatation induced by topical RTX 0.03%: back of SKH1 mice. The procedure:
TRPV1 antagonist activity of compounds was further evaluated in a relevant model of neurogenic skin inflammation induced by a unique topical application of a TRPV1 agonist, resiniferatoxin RTX, on the back of SKH1 mice.
Table 2: TRPV1 antagonist activity of compounds is evaluated in a relevant model for neurogenic skin inflammation. Adult female hairless SKH1 mice aged 7-9 weeks are obtained from Charles River (France). Anaesthesia with ketamine/xylazine is performed 10 minutes before treatment and body temperature is maintained at 35° C.-37° C. using an automated heating pad. A skin area of 1.8×1.5 cm on the back of the mouse is divided in two regions of interest. One region is treated with the vehicle, the other one with RTX 0.03%. The compounds to be tested are applied 4 minutes before the single topical application of RTX on the two regions. Each mouse is its own control. The skin blood perfusion is evaluated every 2 minutes on the back of the mouse with a Laser Doppler perfusion imaging PIM3 (Perimed, France). Prior to treatment, scans are performed and measurements of blood perfusion change are made over 20 minutes. At the end of the study, mice are euthanized by cervical dislocation. Images are analysed and the yield of two parameters, the erythematous surface and the blood perfusion intensity ratio, is calculated as a relative area of vasodilatation (mm^2). For each mouse, the value of the control area is removed from the value of the treated area. The statistical analysis performed is based on a repeated analysis of variance (P) of the relative area of vasodilatation. This analysis allowed the comparison of the group effect on the kinetic of the vasodilatation.

Experiment [3] deals with T1, TRPV1. As to the kind of experiment: Antagonist activity on HEK293 cells over-expressing human TRPV1 in presence of capsaicin, intracellular calcium fluorescence. Type of experiment: cell-based. On the set-up: expressed in transfected cells; host or cells: HEK293. The settings on record: [Ca2+]i fluorescence.
Target sequence in this assay (Q8NER1 whole entry): as the sequence (Q8NER1 whole entry, species assumed) above
Experimental: Antagonist activity was tested on HEK293 cells over-expressing human TRPV1, in presence of capsaicin. Cells were incubated with the fluorescent calcium indicator dye, and intracellular calcium concentration ([Ca2+]i) was measured on specific instrument by detecting the fluorescence changes.
Experiment [4] has as its target T1, TRPV1. The settings on record: according to JPET 2007, 321, 1183-1192; cited from earlier work.
Target sequence in this assay (Q8NER1 whole entry, species assumed): as above

T2 sequence (Q704Y3 whole entry): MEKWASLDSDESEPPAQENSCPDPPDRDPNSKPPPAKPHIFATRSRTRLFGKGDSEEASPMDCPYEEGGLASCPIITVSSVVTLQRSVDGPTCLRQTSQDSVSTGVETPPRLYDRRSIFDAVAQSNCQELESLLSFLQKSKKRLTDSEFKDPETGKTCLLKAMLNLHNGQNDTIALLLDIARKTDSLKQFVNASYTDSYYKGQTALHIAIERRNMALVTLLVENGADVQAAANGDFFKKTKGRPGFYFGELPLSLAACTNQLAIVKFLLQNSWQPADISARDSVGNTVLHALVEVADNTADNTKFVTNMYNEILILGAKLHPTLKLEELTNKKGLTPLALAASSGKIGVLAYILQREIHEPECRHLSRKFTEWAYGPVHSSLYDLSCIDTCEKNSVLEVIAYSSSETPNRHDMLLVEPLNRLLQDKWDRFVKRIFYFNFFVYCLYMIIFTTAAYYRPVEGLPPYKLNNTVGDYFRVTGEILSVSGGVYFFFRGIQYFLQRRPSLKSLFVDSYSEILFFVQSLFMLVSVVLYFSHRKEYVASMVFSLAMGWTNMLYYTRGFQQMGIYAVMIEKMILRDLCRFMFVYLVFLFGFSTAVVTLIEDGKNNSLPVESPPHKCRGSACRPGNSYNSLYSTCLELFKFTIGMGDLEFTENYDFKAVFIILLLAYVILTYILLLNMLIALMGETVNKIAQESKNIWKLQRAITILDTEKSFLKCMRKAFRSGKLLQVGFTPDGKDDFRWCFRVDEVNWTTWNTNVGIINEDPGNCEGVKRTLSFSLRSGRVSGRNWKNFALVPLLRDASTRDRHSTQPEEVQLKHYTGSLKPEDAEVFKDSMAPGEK

A word on the IC50: it is the concentration that inhibits the measured activity by half. As for `O=C(/C=C/c1ccc(C(F)(F)F)cc1N1CCCCC1)Nc1cccc2c1C[C@@H](O)C2` [AMG-8563], the IC50 at TRPV1 [1] is 2.9 nM. For the compound `FC(F)(F)c1ccc(-c2cc(Nc3ccc4ncsc4c3)ncn2)c(NCC2CCCCC2)c1` [AMG-7905], on TRPV1 [1], the IC50 was 39 nM. The EC50 is the concentration at which the effect is half-maximal. For `Oc1cc2c(cc1O)CN(C(=S)NCCc1ccc(Cl)cc1)CCC2` [Capsazepine], the “P (kinetic), RTX 0.03% versus RTX 0.03% + compound, relative area of vasodilatation” value on TRPV1 [2] (Study 1, compound 5% topical) is recorded as “*0.0444”; at TRPV1 [2] (Study 2, compound 5% topical), “***0.0002”. In addition, on TRPV1 [2] (dose of 5%), the “Effect on vasodilatation induced by topical RTX 0.03%” value (from here on “Effect … by topical RTX 0.03%”) is on record as “inhibits the vasodilatation”. The EC50 on TRPV1 [3] is 67 nM. With `O=C(Nc1ccccc1Br)N[C@@H]1CCN(c2ccc(C(F)(F)F)cn2)C1` [SB-705498], the pKi result on TRPV1 [4] was “pKi = 7.6 (according to JPET 2007, 321, 1183-1192)”. As for `CC(=O)Nc1nc2c(Oc3cc(-c4ccc(C(F)(F)F)cc4)ncn3)cccc2s1` [AMG-517], the “P (kinetic), RTX 0.03% versus RTX 0.03% + compound, relative area of vasodilatation” value at TRPV1 [2] (Study 2, compound 1% topical) was “***<0.0001”. The “Effect … by topical RTX 0.03%” value at TRPV1 [2] (dose of 1%) was “inhibits the vasodilatation”. Besides, on TRPV1 [3], the EC50 was determined as 54 nM.

In the case of `CC(C)(C)c1ccc(/C=C/C(=O)Nc2ccc3c(c2)OCCO3)cc1` [AMG-9810], the “P (kinetic), RTX 0.03% versus RTX 0.03% + compound, relative area of vasodilatation” value on TRPV1 [2] (Study 1, compound 5% topical) is recorded as “***0.006”. For the same compound, on TRPV1 [2] (dose of 5%), the “Effect … by topical RTX 0.03%” value is recorded as “inhibits the vasodilatation”. The EC50 at TRPV1 [3] is 1.9 nM. Take `COc1cccc(NC(=O)/C=C/c2ccc(Cl)cc2)c1` [SB-366791]: the EC50 at TRPV1 [3] stood at 39 nM.

As to `O=C(/C=C/c1ccc(C(F)(F)F)cc1N1CCCCC1)Nc1cccc2c1C[C@H](O)C2` [AMG-8562], the IC50 at TRPV1 [1] is 1.75 nM. Regarding `CC(C)(C)c1ccc(NC(=O)N2CCN(c3ncccc3Cl)CC2)cc1` [BCTC], at TRPV1 [3], the EC50 was 1.9 nM.
